What follows are molecules tested on IL-1-dependent PGE^2 (assay: IL-1-dependent PGE2 inhibition test in human rheumatoid synovial cell lines). Details: recombinant human IL-1 alpha 0.1 ng/ml, 7 hours, 37° C., read-out: IC50 (concentration reducing PGE2 release to 50% of IL-1-stimulated control values).
Format: cell-based
Experimental: IL-1-dependent PGE ^2 inhibition test:
Human rheumatoid synovial cell lines, prepared by the enzymatic dissociation of fresh rheumatoid tissue, were maintained by culture in Dulbecco's modified Eagle medium containing 25 mM HEPES, 10% foetal calf serum, 100 units of penicillin per ml and 100 μg of streptomycin per ml (culture medium). Standard incubation conditions were 37° C. in a water-saturated atmosphere containing 95% air and 5% CO2.
Semi-confluent cultures at the third to eighteenth passage were detached by trypsin treatment and resuspended in culture medium at […]. The cell suspension was distributed to 200 μl aliquots into the wells of a 96-well microtitration plate and incubated for 18 hours at 37° C. to allow adhesion of the cells.
Test substances were dissolved in equimolar sodium hydroxide solution and double-dilution series were prepared in sterile water. If the test substances is a compound of formula I in which one of R^1 and R^2 is alkoxycarbonyl and the other hydrogen, it is treated with hog liver esterase prior to carrying out the test. The medium was aspirated from the microcultures of the synovial cells. 170 μl of culture medium were added and the cultures were treated with 20 μl of test substances and then 10 μl of recombinant human IL-1 alpha culture medium to give a final concentration of 0.1 ng/ml. All treatments were carried out in quadruplet. After incubation for 7 hours, samples of the culture media were removed and stored at -20° C. prior to assay for PGE2. The PGE2 content was determined using a [^I 125]R1A kit obtained from NEN Products.
PGE2 concentration detected in unstimulated controls were subtracted from values determined in all stimulated cultures and results were transformed to percent of IL-1-stimulated control PGE2 values. IC50 values were determined by interpolation as those concentrations reducing PGE2 release to 50% of IL-1-stimulated control values.
Work on `O=C(O)[C@H]1[C@H]2CCc3c(-c4ccc(Cl)cc4)noc3[C@H]21` (relative stereo) [Compound C, endo-3-(4-Chlorophenyl)-5,5a,6,6a-tetrahydro-4H-cyclopropa[g]-1,2-benzisoxazole-6-carboxylic acid] yielded an IC50 of 500 nM.
With `CO[C@@H]1CC[C@@H](C(=O)O)Cc2onc(-c3ccc(Cl)cc3)c21` (relative stereo) [Compound D, trans-3-(4-Chlorophenyl)-5,6,7,8-tetrahydro-4-methoxy-4H-cyclohept[d]isoxazole-7-carboxylic acid] the IC50 was 8000 nM.
`C[C@H]1CC[C@H](C(=O)O)Cc2onc(-c3ccc(Cl)cc3)c21` (relative stereo) [Compound E, trans-3-(4-Chlorophenyl)-5,6,7,8-tetrahydro-4-methyl-4H-cyclohept[d]isoaxazole-7-carboxylic acid] gave an IC50 of 40 nM.
In the case of `O=C(O)C1CCc2onc(-c3ccc(Cl)cc3)c2CC1` (single isomer, unassigned; (+)) [Compound A, (+)-3-(4-Chlorophenyl)-5,6,7,8-tetrahydro-4H-cyclohept[d]isoxazole-6-carboxylic acid], the IC50 is reported as 2000 nM.
In the case of `O=C(O)C1CCCc2c(-c3ccc(Cl)cc3)noc2C1` (stereo not drawn) [Compound B, 3-(4-Chlorophenyl)-5,6,7,8-tetrahydro-4H-cyclohept[d]isoxazole-7-carboxylic acid], the IC50 is reported as 15000 nM.
`CCC1(C(=O)O)C2CCc3c(-c4ccc(Cl)cc4)noc3C21` (stereo not drawn) [Compound F, endo-3-(4-Chlorophenyl)-6-ethyl-5,5a,6,6a-tetrahydro-4H-cyclopropa[g]-1,2-benzisoxazole-6-carboxylic acid] showed an IC50 of 700 nM.
